Measurements published in ChEMBL document CHEMBL3769376, “Discovery of I-BRD9, a Selective Cell Active Chemical Probe for Bromodomain Containing Protein 9 Inhibition” (J Med Chem, 2016).
Activity calls are given as the source filed them. The rule behind the calls is not given here.

Columns and labels:
[1] = biological target: T1, Bromodomain-containing protein 9 (Homo sapiens, UniProt Q9H8M2); experiment: Inhibition of BRD9 (unknown origin) incubated in dark for 30 mins by TR-FRET assay
T1 sequence (Q9H8M2 whole entry): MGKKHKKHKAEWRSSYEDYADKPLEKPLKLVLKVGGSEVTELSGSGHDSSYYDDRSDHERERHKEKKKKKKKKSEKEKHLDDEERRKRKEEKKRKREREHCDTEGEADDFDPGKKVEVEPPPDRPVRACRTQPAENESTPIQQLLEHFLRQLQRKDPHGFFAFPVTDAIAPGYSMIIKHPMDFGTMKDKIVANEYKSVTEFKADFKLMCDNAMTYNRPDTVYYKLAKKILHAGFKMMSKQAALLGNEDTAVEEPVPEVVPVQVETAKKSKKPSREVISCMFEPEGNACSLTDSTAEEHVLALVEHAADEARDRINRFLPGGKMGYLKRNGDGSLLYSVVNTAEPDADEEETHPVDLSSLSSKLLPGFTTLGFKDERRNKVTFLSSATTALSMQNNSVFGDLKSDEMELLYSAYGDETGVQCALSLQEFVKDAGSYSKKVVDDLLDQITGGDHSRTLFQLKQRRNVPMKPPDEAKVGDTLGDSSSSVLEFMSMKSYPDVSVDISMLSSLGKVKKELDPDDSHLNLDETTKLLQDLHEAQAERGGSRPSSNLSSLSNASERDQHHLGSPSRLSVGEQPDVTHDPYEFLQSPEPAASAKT

[2] = biological target: Bromodomain-containing protein 4 (Homo sapiens, UniProt O60885); experiment: Inhibition of BRD4 bromodomain 1 (unknown origin) incubated in dark for 30 mins by TR-FRET assay
[3] = biological target: T2, Bromodomain-containing protein 9 (Homo sapiens) (UniProt Q9H8M2); experiment: Inhibition of BRD9 in human Kasumi-1 cells assessed as downregulation of CLEC1 gene at 1 uM after 6 hrs by qPCR method; type: cell-based
T2 sequence (whole entry): T1 sequence (Q9H8M2 whole entry)

[4] = biological target: T2, Bromodomain-containing protein 9 (Homo sapiens); experiment: Inhibition of BRD9 in human Kasumi-1 cells assessed as downregulation of DUSP6 gene at 1 uM after 6 hrs by qPCR method; type: cell-based
[5] = biological target: T2, Bromodomain-containing protein 9 (Homo sapiens); experiment: Inhibition of BRD9 in human Kasumi-1 cells assessed as downregulation of FES gene at 1 uM after 6 hrs by qPCR method; type: cell-based
[6] = biological target: T2, Bromodomain-containing protein 9 (Homo sapiens); experiment: Inhibition of BRD9 in human Kasumi-1 cells assessed as downregulation of SAMSN1 gene at 1 uM after 6 hrs by qPCR method; type: cell-based
[7] = Dissociation constant, pKa of the compound; type: physicochemical

SMILES	IC50 [1] [nM]	IC50 [2] [nM]	further results
COc1ccc(-c2cn(C)c(=O)c3cc(C(=N)NC4CCS(=O)(=O)CC4)sc23)cc1OC	7.94	398	
CNC(=O)c1cc2c(=O)n(C)cc(-c3ccc(OC)c(OC)c3)c2s1	126	200	
COc1cc2c(cc1-c1c(C)noc1C)ncc1[nH]c(=O)n([C@H](C)c3ccccn3)c12			inhibition [3]: inactive; inhibition [4]: inactive; inhibition [5]: inactive; inhibition [6]: inactive
COc1ccc(-c2cn(C)c(=O)c3cc(C(=O)NC4CCS(=O)(=O)CC4)sc23)cc1OC	12.6	50.1	
Cn1cc(-c2ccccc2)c2sc(C(=N)NC3CCS(=O)(=O)CC3)cc2c1=O	39.8	1580	
COc1ccc(-c2cn(C)c(=O)c3cc(C(=O)N4CCN(S(C)(=O)=O)CC4)sc23)cc1OC	200	20000	
CNC(=N)c1cc2c(=O)n(C)cc(-c3ccc(OC)c(OC)c3)c2s1	79.4	1260	
CN(C)c1cccc(-c2cn(C)c(=O)c3cc(C(=N)NC4CCS(=O)(=O)CC4)sc23)c1	10	501	
COc1cccc(-c2cn(C)c(=O)c3cc(C(=N)NC4CCS(=O)(=O)CC4)sc23)c1	12.6	794	
Cn1cc(-c2cccc(C#N)c2)c2sc(C(=N)NC3CCS(=O)(=O)CC3)cc2c1=O	39.8	2510	
COc1ccc(-c2cn(C)c(=O)c3cc(C(=O)N(C)C)sc23)cc1OC	5010	12600	
Cn1cc(-c2cccc(C(F)(F)F)c2)c2sc(C(=N)NC3CCS(=O)(=O)CC3)cc2c1=O	15.8	2510	pKa [7]: 8.4
CC(C)n1cc(-c2cccc(C(F)(F)F)c2)c2sc(C(=N)NC3CCS(=O)(=O)CC3)cc2c1=O	3160	> 50100	
COc1ccc(-c2cn(C)c(=O)c3cc(C(=O)N4CCCCC4)sc23)cc1OC	3980	15800	
